According to the supplement of paper PMC11451515:

Test system: SEM cells
Test: cell viability relative to DMSO control; higher = less cytotoxic
Settings: 48 h
Summary of the method: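 NOMO1 or SEM (500 cells/well) or P12-Ichikawa (1000 cells/well) leukemia cells were adapted for at least four passages in each medium. They were seeded in 1536-well plates (5 μl) and pin-dosed with library compounds in DMSO over an 11-point threefold series, 47 μM to 0.79 nM. CellTiter-Glo One luminescence was read after 48 h at 37°C. Viability is the per-plate percentage relative to DMSO wells, with cell-free wells as background.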

[1] = HPLM + 10% dialyzed FBS, 0.000781 µM
[2] = HPLM + 10% dialyzed FBS, 0.00234 µM
[3] = HPLM + 10% dialyzed FBS, 0.00702 µM
[4] = HPLM + 10% dialyzed FBS, 0.0211 µM
[5] = HPLM + 10% dialyzed FBS, 0.0632 µM
[6] = HPLM + 10% dialyzed FBS, 0.19 µM
[7] = HPLM + 10% dialyzed FBS, 0.569 µM
[8] = HPLM + 10% dialyzed FBS, 1.71 µM
[9] = HPLM + 10% dialyzed FBS, 5.12 µM
[10] = HPLM + 10% dialyzed FBS, 15.4 µM
[11] = HPLM + 10% dialyzed FBS, 46.1 µM
[12] = RPMI 5 mM glucose + 10% FBS, 0.000781 µM
[13] = RPMI 5 mM glucose + 10% FBS, 0.00234 µM
[14] = RPMI 5 mM glucose + 10% FBS, 0.00702 µM
[15] = RPMI 5 mM glucose + 10% FBS, 0.0211 µM
[16] = RPMI 5 mM glucose + 10% FBS, 0.0632 µM
[17] = RPMI 5 mM glucose + 10% FBS, 0.19 µM
[18] = RPMI 5 mM glucose + 10% FBS, 0.569 µM
[19] = RPMI 5 mM glucose + 10% FBS, 1.71 µM
[20] = RPMI 5 mM glucose + 10% FBS, 5.12 µM
[21] = RPMI 5 mM glucose + 10% FBS, 15.4 µM
[22] = RPMI 5 mM glucose + 10% FBS, 46.1 µM
[23] = RPMI 5 mM glucose + 10% dialyzed FBS, 0.000781 µM
[24] = RPMI 5 mM glucose + 10% dialyzed FBS, 0.00234 µM
[25] = RPMI 5 mM glucose + 10% dialyzed FBS, 0.00702 µM
[26] = RPMI 5 mM glucose + 10% dialyzed FBS, 0.0211 µM
[27] = RPMI 5 mM glucose + 10% dialyzed FBS, 0.0632 µM
[28] = RPMI 5 mM glucose + 10% dialyzed FBS, 0.19 µM
[29] = RPMI 5 mM glucose + 10% dialyzed FBS, 0.569 µM
[30] = RPMI 5 mM glucose + 10% dialyzed FBS, 1.71 µM
[31] = RPMI 5 mM glucose + 10% dialyzed FBS, 5.12 µM
[32] = RPMI 5 mM glucose + 10% dialyzed FBS, 15.4 µM
[33] = RPMI 5 mM glucose + 10% dialyzed FBS, 46.1 µM

| Structure (SMILES) | cell viability [1] [%] | cell viability [2] [%] | cell viability [3] [%] | cell viability [4] [%] | cell viability [5] [%] | cell viability [6] [%] | cell viability [7] [%] | cell viability [8] [%] | cell viability [9] [%] | cell viability [10] [%] | cell viability [11] [%] | cell viability [12] [%] | cell viability [13] [%] | cell viability [14] [%] | cell viability [15] [%] | cell viability [16] [%] | cell viability [17] [%] | cell viability [18] [%] | cell viability [19] [%] | cell viability [20] [%] | cell viability [21] [%] | cell viability [22] [%] | cell viability [23] [%] | cell viability [24] [%] | cell viability [25] [%] | cell viability [26] [%] | cell viability [27] [%] | cell viability [28] [%] | cell viability [29] [%] | cell viability [30] [%] | cell viability [31] [%] | cell viability [32] [%] | cell viability [33] [%] |
| --- | --- | --- | --- | --- | --- | --- | --- | --- | --- | --- | --- | --- | --- | --- | --- | --- | --- | --- | --- | --- | --- | --- | --- | --- | --- | --- | --- | --- | --- | --- | --- | --- | --- |
| C[N+](C)([O-])CCNc1ccc(NCC[N+](C)(C)[O-])c2c1C(=O)c1c(O)ccc(O)c1C2=O | 101 | 85.4 | 83.8 | 84.5 | 88.8 | 77.1 | 69.7 | 46.4 | 7.02 | 20.1 | 10.1 | 101 | 95.8 | 105 | 89.9 | 73.5 | 56.6 | 55.8 | 28.8 | 7.28 | 12.8 | 9.18 | 88.9 | 86.1 | 93.8 | 87.7 | 79.5 | 68.2 | 62 | 33.5 | 8.62 | 18.8 | 12 |
| O=C1N\2CCC3=C([NH]C4=C3C=CC=C4)C2=N/C5=CC=CC=C15 | 96 | 102 | 114 | 118 | 92.8 | 123 | 123 | 115 | 110 | 90.8 | 76.8 | 124 | 113 | 137 | 134 | 109 | 126 | 122 | 147 | 144 | 95 | 83.7 | 123 | 112 | 142 | 135 | 121 | 153 | 147 | 135 | 151 | 101 | 53.6 |
| CCN(C)C(=O)Oc1cccc([C@H](C)N(C)C)c1 | 101 | 108 | 104 | 125 | 110 | 119 | 97.4 | 105 | 99.2 | 101 | 105 | 121 | 114 | 108 | 111 | 122 | 90.1 | 95.9 | 95.9 | 85.7 | 105 | 99.5 | 124 | 100 | 111 | 121 | 110 | 109 | 121 | 101 | 111 | 110 | 95.6 |
| CN[S+](=O)([O-])CCc1ccc2[nH]cc(C3CCN(C)CC3)c2c1 | 78.4 | 74.3 | 87.2 | 98.7 | 97.7 | 108 | 91.8 | 99.7 | 109 | 111 | 110 | 84 | 67.4 | 90.8 | 101 | 94.1 | 103 | 92.5 | 105 | 110 | 99.7 | 88.8 | 87 | 75.4 | 99.6 | 86.6 | 93.3 | 99.4 | 90.9 | 97 | 84.2 | 92.9 | 85.5 |
| CCN1C[C@]2(OC(=O)c3ccccc3NC(C)=O)CC[C@H](OC)[C@@]34[C@@H]2C[C@@H]([C@@H]13)[C@@]1(O)C[C@H](OC)[C@H]2C[C@@H]4[C@]1(O)[C@H]2OC | 85 | 100 | 99 | 105 | 99.6 | 104 | 98.2 | 106 | 92.5 | 85.2 | 88.6 | 79.5 | 96.6 | 101 | 102 | 106 | 99.8 | 103 | 90.9 | 87.9 | 65.6 | 71 | 88.2 | 94.6 | 97.5 | 101 | 81.9 | 88.4 | 99.4 | 93 | 80.6 | 78.4 | 86.5 |
| NC(=O)c1cccc(N)c1 | 92.8 | 104 | 38.7 | 112 | 116 | 120 | 113 | 129 | 115 | 106 | 118 | 72.3 | 106 | 10.3 | 79.6 | 84.5 | 97.8 | 82.9 | 85.5 | 80.6 | 104 | 81.6 | 79.9 | 115 | 27.4 | 95.4 | 102 | 98.2 | 105 | 94.4 | 96.3 | 117 | 99.4 |
| N[C@@H](CC(=O)N1CCn2c(nnc2C(F)(F)F)C1)Cc1cc(F)c(F)cc1F | 111 | 113 | 110 | 118 | 105 | 105 | 99.8 | 117 | 107 | 41.9 | 93.3 | 100 | 104 | 98.1 | 102 | 132 | 113 | 106 | 112 | 109 | 50 | 96.4 | 96.9 | 118 | 103 | 97.4 | 103 | 108 | 96.8 | 98.8 | 92.3 | 40.1 | 98.6 |
